Test system: PDC 899932-113-R3-J6 complex spheroid viability
Test: Anticancer human tumor 899932-113-R3-J6-PDC patient-derived melanoma cell line growth inhibition [RAS]
Conditions: for IC50: curve of first compound; for viability, T/C: stronger effect = lower value
Method in brief: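 Agents were tested in combination matrices in half-log decrements from a top concentration at or near clinical Cmax (10 microM if undetermined). Targets were multi-cell spheroids of tumour lines plus HUVEC and MSC stromal cells.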

[1] = second compound 0.000949 µM, first compound 0.0316 µM
[2] = second compound 0.000949 µM, first compound 0.1 µM
[3] = second compound 0.000949 µM, first compound 0.316 µM
[4] = second compound 0.000949 µM, first compound 1 µM
[5] = second compound 0.000949 µM, first compound 3.16 µM
[6] = second compound 0.000949 µM, first compound 10 µM
[7] = second compound 0.003 µM, first compound 0.0316 µM
[8] = second compound 0.003 µM, first compound 0.1 µM
[9] = second compound 0.003 µM, first compound 0.316 µM
[10] = second compound 0.003 µM, first compound 1 µM
[11] = second compound 0.003 µM, first compound 3.16 µM
[12] = second compound 0.003 µM, first compound 10 µM
[13] = second compound 0.00949 µM, first compound 0.0316 µM
[14] = second compound 0.00949 µM, first compound 0.1 µM
[15] = second compound 0.00949 µM, first compound 0.316 µM
[16] = second compound 0.00949 µM, first compound 1 µM
[17] = second compound 0.00949 µM, first compound 3.16 µM
[18] = second compound 0.00949 µM, first compound 10 µM
[19] = second compound 0.03 µM, first compound 0.0316 µM
[20] = second compound 0.03 µM, first compound 0.1 µM
[21] = second compound 0.03 µM, first compound 0.316 µM
[22] = second compound 0.03 µM, first compound 1 µM
[23] = second compound 0.03 µM, first compound 3.16 µM
[24] = second compound 0.03 µM, first compound 10 µM
[25] = second compound 0.0949 µM, first compound 0.0316 µM
[26] = second compound 0.0949 µM, first compound 0.1 µM
[27] = second compound 0.0949 µM, first compound 0.316 µM
[28] = second compound 0.0949 µM, first compound 1 µM
[29] = second compound 0.0949 µM, first compound 3.16 µM
[30] = second compound 0.0949 µM, first compound 10 µM
[31] = second compound 0.3 µM, first compound 0.0316 µM
[32] = second compound 0.3 µM, first compound 0.1 µM
[33] = second compound 0.3 µM, first compound 0.316 µM
[34] = second compound 0.3 µM, first compound 1 µM
[35] = second compound 0.3 µM, first compound 3.16 µM
[36] = second compound 0.3 µM, first compound 10 µM
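Wherever viability, T/C is given: spheroids exposed to agents for seven days before readout; 100% = DMSO vehicle control wells.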

Work on `CC1(O)CCCC1n1c(=O)c(C(F)F)cc2cnc(NC3CCN(S(C)(=O)=O)CC3)nc21` (centres undefined) + CCn1c(-c2cccnc2C(C)OC)c2c3cc(ccc31)N1CCOC(CC(NC(=O)C(C(C)C)N(C)C(=O)C3(F)CCN(C(=O)C#CC(C)(C)N(C)C)CC3)C(=O)N3CCCC(N3)C(=O)OCC(C)(C)C2)C1 yielded an IC50 (second compound 0.000949 µM) of 3730 nM, an IC50 (second compound 0.003 µM) of 3710 nM and an IC50 (second compound 0.00949 µM) of 2840 nM. The IC50 (second compound 0.03 µM) was 3470 nM, the IC50 (second compound 0.0949 µM) was 2710 nM and the IC50 (second compound 0.3 µM) was 3410 nM. For the same compound, the viability, T/C [1] was 98.1%, the viability, T/C [2] was 86.7% and the viability, T/C [3] was 72.3%. For the same compound, the viability, T/C [4] was 68.8%, the viability, T/C [5] was 56.8% and the viability, T/C [6] was 33.6%. For the same compound, the viability, T/C [7] was 99.8%, the viability, T/C [8] was 83% and the viability, T/C [9] was 71.6%. It also gave a viability, T/C [10] of 69.7%, a viability, T/C [11] of 59% and a viability, T/C [12] of 32.3%. It also gave a viability, T/C [13] of 107%, a viability, T/C [14] of 84.5% and a viability, T/C [15] of 69.7%. It also gave a viability, T/C [16] of 63.4%, a viability, T/C [17] of 55.9% and a viability, T/C [18] of 32.9%. It also gave a viability, T/C [19] of 110%, a viability, T/C [20] of 79.9% and a viability, T/C [21] of 69.6%. It also gave a viability, T/C [22] of 70.1%, a viability, T/C [23] of 59.7% and a viability, T/C [24] of 32.3%. It also gave a viability, T/C [25] of 94%, a viability, T/C [26] of 80.2% and a viability, T/C [27] of 66.3%. It also gave a viability, T/C [28] of 64.8%, a viability, T/C [29] of 55.6% and a viability, T/C [30] of 27%. It also gave a viability, T/C [31] of 88.5%, a viability, T/C [32] of 77.8% and a viability, T/C [33] of 69.3%. For the same compound, the viability, T/C [34] was 63.7%, the viability, T/C [35] was 59.6% and the viability, T/C [36] was 23.1%.

With `CCC(CC)c1cc(NC2CCC(N)C2)n2nccc2n1` (centres undefined) + CCn1c(-c2cccnc2C(C)OC)c2c3cc(ccc31)N1CCOC(CC(NC(=O)C(C(C)C)N(C)C(=O)C3(F)CCN(C(=O)C#CC(C)(C)N(C)C)CC3)C(=O)N3CCCC(N3)C(=O)OCC(C)(C)C2)C1 the IC50 (second compound 0.000949 µM) was 1460 nM, the IC50 (second compound 0.003 µM) was 1580 nM and the IC50 (second compound 0.00949 µM) was 1500 nM. The IC50 (second compound 0.03 µM) was 1490 nM, the IC50 (second compound 0.0949 µM) was 1310 nM and the IC50 (second compound 0.3 µM) was 1220 nM. For the same compound, the viability, T/C [1] was 104%, the viability, T/C [2] was 86.7% and the viability, T/C [3] was 94.8%. It also gave a viability, T/C [4] of 73.8%, a viability, T/C [5] of 1.84% and a viability, T/C [6] of 0.94%. It also gave a viability, T/C [7] of 95.8%, a viability, T/C [8] of 85.5% and a viability, T/C [9] of 90.9%. The viability, T/C [10] was 81.7%, the viability, T/C [11] was 1.51% and the viability, T/C [12] was 1.01%. For the same compound, the viability, T/C [13] was 94.7%, the viability, T/C [14] was 82.3% and the viability, T/C [15] was 87.1%. The viability, T/C [16] was 76.7%, the viability, T/C [17] was 1.18% and the viability, T/C [18] was 0.88%. The viability, T/C [19] was 86.7%, the viability, T/C [20] was 77.1% and the viability, T/C [21] was 85.3%. For the same compound, the viability, T/C [22] was 75.9%, the viability, T/C [23] was 1.56% and the viability, T/C [24] was 0.52%. For the same compound, the viability, T/C [25] was 80.2%, the viability, T/C [26] was 83.4% and the viability, T/C [27] was 87.5%. For the same compound, the viability, T/C [28] was 64.8%, the viability, T/C [29] was 1.71% and the viability, T/C [30] was 0.88%. The viability, T/C [31] was 79.8%, the viability, T/C [32] was 73.5% and the viability, T/C [33] was 77.9%. For the same compound, the viability, T/C [34] was 60%, the viability, T/C [35] was 1.44% and the viability, T/C [36] was 0.36%.

— PubChem BioAssay AID2060895 (Molecular Pharmacology Branch, DTP, NCI, 2025)
